For five compounds, Ki and hair growth stimulation results are on record in patent publication US20010029261A1, “Small molecule sulfonamide hair growth compositions and uses” (GUILFORD PHARMACEUTICALS INC., priority 1997, published 2001).

One assay deals with FKBP12 (Homo sapiens, UniProt P62942). As to the kind of experiment: Ki test procedure: inhibition of peptidyl-prolyl isomerase (rotamase) activity, chymotrypsin-coupled assay. In kind it is biochemical. The following applies: apparent Ki. The source says: The inhibition of the prolyl peptidyl cis-trans isomerase activity of FKBP may be measured as an indicator of this affinity.
Sequence of FKBP12 (P62942 whole entry, species assumed): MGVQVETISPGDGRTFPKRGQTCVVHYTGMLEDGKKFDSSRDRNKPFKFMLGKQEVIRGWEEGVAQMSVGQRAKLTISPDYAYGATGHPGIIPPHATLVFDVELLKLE
Inhibition of the peptidyl-prolyl isomerase (rotamase) activity of the compounds used in the inventive methods and pharmaceutical compositions can be evaluated by known methods described in the literature (Harding et al., Nature, 1989, 341:758-760; Holt et al. J. Am. Chem. Soc., 115:9923-9938). These values are obtained as apparent Ki's and are presented for representative compounds in TABLE II.
The cis-trans isomerization of an alanine-proline bond in a model substrate, N-succinyl-Ala-Ala-Pro-Phe-p-nitroanilide, is monitored spectrophotometrically in a chymotrypsin-coupled assay, which releases para-nitroanilide from the trans form of the substrate. The inhibition of this reaction caused by the addition of different concentrations of inhibitor is determnined, and the data is analyzed as a change in first-order rate constant as a function of inhibitor concentration to yield the apparent Ki values.
In a plastic cuvette are added […] of ice cold assay buffer (25 mM HEPES, pH 7.8, 100 mM NaCl), 10 mL of FKBP (2.5 mM in 10 mM Tris-Cl pH 7.5, 100 mM NaCl, 1 mM dithiothreitol), […] of chymotrypsin (50 mg/ml in 1 mM HCl) and […] of test compound at various concentrations in dimethyl sulfoxide. The reaction is initiated by the addition of 5 mL of substrate (succinyl-Ala-Phe-Pro-Phe-para-nitroanilide, 5 mg/mL in 2.35 mM LiCl in trifluoroethanol).
The absorbance at 390 nm versus time is monitored for 90 seconds using a spectrophotometer and the rate constants are determined from the absorbance versus time data files.

Another assay concerns hair growth. The following applies: topical, but not oral, application; cited from earlier work.

For the compound `O=C(OCCCCc1ccccc1)C1CCCCN1S(=O)(=O)Cc1ccccc1` (racemic) [Compound 1, 4-phenyl-1-butyl-1-(benzylsulfonyl)-(2R,S)-2-pipecolinate], the Ki at FKBP12 was found to be 72 nM.
In the case of `O=C(OC(CCc1ccccc1)CCc1ccccc1)C1CCCCN1S(=O)(=O)Cc1ccccc1` (stereo not drawn) [Compound 2, 1,5-diphenyl-3-pentyl-N-(α-toluene-sulfonyl)pipecolate], on FKBP12, the Ki came to 34 nM.
Still for that read-out and setting: with `O=C(OCCCc1cccnc1)[C@@H]1CCCN1S(=O)(=O)Cc1ccccc1` [Compound 4, 3-(3-pyridyl)-1-propyl-(2S)-N-(α-toluenesulfonyl)pyrrolidine-2-carboxylate] the figure was 332 nM; with `O=C(OCCCCc1ccccc1)C1CCCCN1S(=O)(=O)Cc1ccccc1` (stereo not drawn) [Compound 7, 4-phenyl-1-butyl-N-(α-toluene-sulfonyl)pipecolate], 127 nM.
`C=CC[C@@H]1/C=C(\C)C[C@H](C)C[C@H](OC)[C@H]2O[C@@](O)(C(=O)C(=O)N3CCCC[C@H]3C(=O)O[C@H](/C(C)=C/[C@@H]3CC[C@@H](O)[C@H](OC)C3)[C@H](C)[C@@H](O)CC1=O)[C@H](C)C[C@@H]2OC` [FK506]: the hair growth stimulation entry in the assay with hair growth is given as “stimulates hair growth in a dose-dependent manner”.
